Where two headings read alike, the source gives them in different places.
Tests used:
Test in all cases: cells
Type in all cases: cell-based
Details in all cases: Homo sapiens; for IC (TGI): read-out: TGI
HT29 = test system: HT29
Description: (§1) The aim of this assay is to evaluate the in vitro cytostatic (ability to delay or arrest tumor cell growth) or cytotoxic (ability to kill tumor cells) activity of the samples being tested.
(§2) Evaluation of Cytotoxic Activity Using the SBR Colorimetric Assay
(§3) A colorimetric type of assay, using sulforhodamine B (SRB) reaction has been adapted for a quantitative measurement of cell growth and viability (following the technique described by Skehan P et al. J. Natl. Cancer Inst. 1990, 82, 1107-1112).
(§4) This form of assay employs SBS-standard 96-well cell culture microplates (Faircloth et al. Methods in cell science, 1988, 11(4), 201-205; Mosmann et al, Journal of. Immunological. Methods, 1983, 65(1-2), 55-63). All the cell lines used in this study, derived from different types of human cancer, were obtained from the American Type Culture Collection (ATCC).
(§5) Cells were maintained in Dulbecco's Modified Eagle Medium (DMEM) supplemented with 10% Fetal Bovine Serum (FBS), 2 mM L-glutamine, 100 U/mL penicillin and 100 U/mL streptomycin at 37° C., 5% CO2 and 98% humidity. For the experiments, cells were harvested from subconfluent cultures using trypsinization and resuspended in fresh medium before counting and plating.
(§6) Cells were seeded in 96 well microtiter plates at 5×10^3 cells per well in aliquots of 150 μL, and allowed to attach to the plate surface for 18 hours in drug free medium. One control (untreated) plate of each cell line was fixed (as described below) and used for time zero reference value. Afterwards, test samples were added to the cultures in ten serial dilutions, in aliquots of 50 μL, ranging from 10 to 0.00262 μg/mL. After 48 hours exposure, the antitumor effect was estimated by the SRB method: Briefly, cells were washed twice with PBS, fixed for 15 min in 1% glutaraldehyde solution, rinsed twice in PBS, and stained in 0.4% SRB solution for 30 min at room temperature. Cells were then rinsed several times with 1% acetic acid solution and air-dried. SRB was then extracted in 10 mM trizma base solution and the absorbance measured in an automated spectrophotometric plate reader at 490 nm. Cell survival was expressed as percentage of control cell growth. The final effect of the sample being tested was estimated by applying the NCI algorithm (Boyd M R and Paull K D. Drug Dev. Res. 1995, 34, 91-104).
(§7) Using the mean±SD of triplicate cultures, a dose-response curve was automatically generated using nonlinear regression analysis. Three reference parameters were calculated (NCI algorithm) by automatic interpolation: GI50=concentration that produces 50% growth inhibition; TGI=total growth inhibition (cytostatic effect) and LC50=concentration that produces 50% net cell killing (cytotoxic effect).

MDA-MB-231 = test system: MDA-MB-231
Description: as §1, §2, §3, §4, §5, §6, §7

A549 = test system: A549
Description: as §1, §2, §3, §4, §5, §6, §7

[1] = HT-29, HT29, 48 hours exposure, SRB, 50% net cell killing (cytotoxic effect), read-out: LC50 (the source's name)
[2] = HT-29, HT29, 48 hours exposure, SRB, concentration that produces 50% growth inhibition, read-out: GI50
[3] = HT-29, HT29, 48 hours exposure, SRB, total growth inhibition (cytostatic effect)
[4] = MDA-MB-231, 48 hours exposure, SRB, 50% net cell killing (cytotoxic effect), read-out: LC50 (the source's name)
[5] = MDA-MB-231, 48 hours exposure, SRB, concentration that produces 50% growth inhibition, read-out: GI50
[6] = MDA-MB-231, 48 hours exposure, SRB, total growth inhibition (cytostatic effect)
[7] = A549, 48 hours exposure, SRB, 50% net cell killing (cytotoxic effect), read-out: LC50 (the source's name)
[8] = A549, 48 hours exposure, SRB, concentration that produces 50% growth inhibition, read-out: GI50
[9] = A549, 48 hours exposure, SRB, total growth inhibition (cytostatic effect)
[10] = MDA-MB-231, 48 h, read-out: LC50

Structure (SMILES) | CC50 (HT29; [1]) [nM] | GI50 (HT29; [2]) [nM] | IC (TGI) (HT29; [3]) [nM] | CC50 (MDA-MB-231; [4]) [nM] | GI50 (MDA-MB-231; [5]) [nM] | IC (TGI) (MDA-MB-231; [6]) [nM] | CC50 (A549; [7]) [nM] | GI50 (A549; [8]) [nM] | IC (TGI) (A549; [9]) [nM] | GI50 (HT29; HT-29, 48 h) [nM] | CC50 (HT29; HT-29, 48 h, read-out: LC50) [nM] | IC (TGI) (HT29; HT-29, 48 h) [nM] | GI50 (MDA-MB-231; MDA-MB-231, 48 h) [nM] | CC50 (MDA-MB-231; [10]) [nM] | IC (TGI) (MDA-MB-231; MDA-MB-231, 48 h) [nM] | GI50 (A549; A549, 48 h) [nM] | CC50 (A549; A549, 48 h, read-out: LC50) [nM] | IC (TGI) (A549; A549, 48 h) [nM]
COC1=CC[C@@H]([C@@H](C)/C=C(C)/C=C\C=C/C(=O)N[C@H](C(=O)N/C=C\C[C@@H](O)C/C=C(\C)Cl)C(C)(C)C)OC1=O [Compound 30a] | 10.1 | 1.35 | 2.13 | 85.2 | 1.95 | 9.41 | > 1780 | 2.31 | 137 | – | – | – | – | – | – | – | – | –
COC1=CC[C@@H]([C@@H](C)/C=C(C)/C=C\C=C\C(=O)N[C@H](C(=O)N/C=C\C[C@H](C/C=C(\C)Cl)O[Si](C)(C)C(C)(C)C)C(C)(C)C)OC1=O [Compound 29e] | 2360 | 2070 | 2210 | 2070 | 1140 | 1480 | 2660 | 1150 | 1770 | – | – | – | – | – | – | – | – | –
COC1=CC[C@@H]([C@@H](C)/C=C(C)/C=C\C=C\C(=O)N[C@H](C(=O)N/C=C\C[C@@H](O)C/C=C(\C)Cl)C(C)(C)C)OC1=O [Compound 30e] | 44.4 | 13.5 | 21.3 | 266 | 23.1 | 65.7 | 3550 | 35.5 | 302 | – | – | – | – | – | – | – | – | –
C/C(Cl)=C\C[C@H](O)C/C=C\NC(=O)[C@@H](NC(=O)\C=C/C=C\C(C)=C\[C@H](C)[C@@H]1CC=CC(=O)O1)C(C)(C)C [Compound 30f] | 1050 | 488 | 713 | 1610 | 694 | 1070 | 919 | 488 | 657 | – | – | – | – | – | – | – | – | –
COC1=CC[C@@H]([C@@H](C)/C=C(C)/C=C\C=C/C(=O)N[C@H](C(=O)N/C=C\C[C@H](C/C=C(\C)Cl)OC(N)=O)C(C)C)OC1=O [Compound 5] | > 169 | 0.0439 | 0.128 | 4.9 | 0.103 | 0.456 | > 169 | 0.0608 | 0.321 | – | – | – | – | – | – | – | – | –
COC1=CC[C@@H]([C@@H](C)/C=C(C)/C=C\C=C/C(=O)N[C@H](C(=O)N/C=C\C[C@@H](O)C/C=C(\C)Cl)C(C)C)OC1=O [Compound 30c] | > 182 | 0.474 | 0.838 | 52.8 | 0.983 | 5.83 | > 182 | 0.71 | 3.1 | – | – | – | – | – | – | – | – | –
COC1=CC[C@@H]([C@@H](C)/C=C(C)/C=C\C=C/C(=O)N[C@@H](Cc2ccccc2)C(=O)N/C=C\C[C@H](C/C=C(\C)Cl)OC(N)=O)OC1=O [Compound 31] | > 15.6 | 0.0406 | 0.102 | 0.359 | 0.075 | 0.15 | > 15.6 | 0.0922 | 0.219 | – | – | – | – | – | – | – | – | –
COC1=CC[C@@H]([C@@H](C)/C=C(C)/C=C\C=C/C(=O)N[C@H](C(=O)N/C=C\C[C@H](C/C=C(\C)Cl)O[Si](C)(C)C(C)(C)C)C(C)(C)C)OC1=O [Compound 29a] | 4430 | 605 | 1420 | 6200 | 1180 | 2800 | 8560 | 886 | 3400 | – | – | – | – | – | – | – | – | –
COC1=CC[C@@H]([C@@H](C)/C=C(C)/C=C\C=C/C(=O)N[C@H](C(=O)N/C=C\C[C@@H](C/C=C(\C)Cl)OC(N)=O)C(C)C)OC1=O [(21S)-5] | 3.88 | 2.53 | 2.87 | 103 | 4.56 | 18.6 | > 1690 | 6.92 | 28.7 | – | – | – | – | – | – | – | – | –
COC1=CC[C@@H]([C@@H](C)/C=C(C)/C=C/C=C/C(=O)N[C@H](C(=O)N/C=C\C[C@H](C/C=C(\C)Cl)O[Si](C)(C)C(C)(C)C)C(C)(C)C)OC1=O [Compound 37] | 10000 | 1920 | 2950 | > 14800 | 3100 | 5610 | 13900 | 3540 | 6640 | – | – | – | – | – | – | – | – | –
COC1=CC[C@@H]([C@@H](C)/C=C(C)/C=C\C=C/C(=O)N[C@@H](Cc2ccccc2)C(=O)N/C=C\C[C@@H](O)C/C=C(\C)Cl)OC1=O [Compound 30d] | > 16.7 | 0.132 | 0.251 | > 16.7 | 0.31 | 0.703 | > 16.7 | 0.318 | 1.06 | – | – | – | – | – | – | – | – | –
COC1=CC[C@@H]([C@@H](C)/C=C(C)/C=C\C=C/C(=O)N[C@H](C(N)=O)C(C)(C)C)OC1=O [Compound 7] | 816 | 420 | 544 | 2450 | 420 | 841 | > 2470 | 618 | 1190 | – | – | – | – | – | – | – | – | –
COC1=CC[C@@H]([C@@H](C)/C=C(C)/C=C\C=C/C(=O)N[C@@H](C(N)=O)C(C)(C)C)OC1=O [(15R)-7] | 1310 | 346 | 593 | > 24700 | 766 | 2470 | > 24700 | 1040 | 3460 | – | – | – | – | – | – | – | – | –
COC1=CC[C@@H]([C@@H](C)/C=C(C)/C=C/C=C/C(=O)N[C@H](C(=O)N/C=C\C[C@H](C/C=C(\C)Cl)OC(N)=O)C(C)(C)C)OC1=O [Compound 3] | – | – | – | – | – | – | – | – | – | 0.445 | > 165 | 0.759 | 0.924 | 9.57 | 2.47 | 1.02 | > 165 | 4.29
COC1=CCC(C(C)/C=C(C)/C=C/C=C\C(=O)NC(C(=O)N/C=C\CC(C/C=C(\C)Cl)OC(N)=O)C(C)C)OC1=O (stereo not drawn) [Compound 6] | 4.9 | 0.591 | 1.01 | 15.5 | 0.49 | 3.21 | > 1640 | 0.76 | > 1640 | – | – | – | – | – | – | – | – | –
COC1=CC[C@@H]([C@@H](C)/C=C(C)/C=C/C=C/C(=O)N[C@H](C(=O)N/C=C\C[C@@H](O)C/C=C(\C)Cl)C(C)(C)C)OC1=O [Compound 38] | > 178 | 39.1 | 63.9 | > 178 | 60.4 | > 178 | > 178 | 46.2 | 67.5 | – | – | – | – | – | – | – | – | –
C/C=C\C[C@@H](C/C=C\NC(=O)[C@@H](NC(=O)\C=C/C=C\C(C)=C\[C@H](C)[C@@H]1CC=C(OC)C(=O)O1)C(C)(C)C)OC(N)=O [Compound 4] | – | < 0.431 | 0.928 | – | 0.613 | 1.49 | – | 0.595 | 2.45 | – | 1.12 | – | – | 8.23 | – | – | > 1640 | –
C/C=C\C[C@H](O)C/C=C\NC(=O)[C@@H](NC(=O)\C=C/C=C\C(C)=C\[C@H](C)[C@@H]1CC=C(OC)C(=O)O1)C(C)(C)C [Compound 30b] | 4730 | 9.84 | 92.7 | 5110 | 20.8 | 511 | > 18900 | 22.7 | 322 | – | – | – | – | – | – | – | – | –
